Like-named read-outs stand apart in the source and are kept apart here.
How the values were obtained:
[1] = test system: HEK-293 (embryonic kidney epithelial cell); assay: WST-1 cytotoxicity, HEK-293; format: cell-based; settings: normal cell
Method: Cancer and normal cell lines were purchased from ATCC and stored in liquid nitrogen. HT-29 (colon adenoma cancer), HeLa (cervix adenoma cancer cell), MDA-MB-231 (breast adenoma cancer cell), HEK-293 (embryonic kidney epithelial cell) and PNT-1A (normal prostate cells) cell lines were incubated in DMEM: F-12 and RPMI-1640, including 10% foetal bovine serum (FBS), 100 µg/mL streptomycin/100 IU/mL penicillin, at 37 °C in an incubator containing 5% CO2, 95% air in a humid atmosphere.
The cytotoxic effects of the substances were evaluated with WST-1 kits (Roche, Germany) in accordance with the manufacturer’s protocols. The cells were planted in 96-well plates (10^4 cells in each well). After incubation for 24 h, the media were discarded and the substances and 5-Fu as the control drug, at doses of 0, 2.5, 5, 10, 25, 50, 100 and 200 µM, were incubated for 24, 48 and 72 h. WST-1 reactive of 10 µL was added to all wells. Following 4-h incubation, the measurements were taken on a plate reader (Spectramax M5) at wavelengths of 450 and 630 nm. Graphs were then created and the IC50 value of each substance was calculated.

HeLa cells [2] = assay: Annexin-V FITC/PI apoptosis by flow cytometry; format: cell-based, human; settings: Annexin-V FITC
Method: The apoptotic effect of the substances was explored with the commercial FITC Annexin-V Apoptosis Detection Kit I (BD Biosciences, New Jersey, USA) according to the manufacturer’s protocol. The cells were planted in 6-well plates (5 × 10^5 cells/well), and following 24-h incubation, sulphonamide derivative compounds at concentrations of 10–25–50 µM were administered, followed by incubation for 24 h. The cells were raised by trypsin handling and transferred into new tubes within 1X binding buffer, as 1 × 10^6 in each tube, which were incubated for 15 min at room temperature. 5 µL of fluorochrome-conjugated Annexin-V and 5 µL of propidium iodide dyes were then added. 100 µL 1X binding buffer was added to the cells, and they were then centrifuged at 1200 rpm, for 5 min. Finally, the cells were analysed in flow cytometry (BD Via, New Jersey, USA).

HeLa cells [3] = assay: Western blot of apoptosis proteins and CA IX; format: cell-based, human; settings: 24 h
Method: The cells were seeded on 6 cm^2 cell culture dishes and treated with sulphonamide compounds, at doses of 10–25–50 µM, for 24 h. The cells were then washed with cold PBS, which was followed by lysis with RIPA lysis buffer (10 mM Tris-HCl pH = 8, 1 mM EDTA, 1 mM EGTA, 140 mM NaCl, 1% Triton X-100, 0.1 SDS, 0.1% sodium deoxycholate), 1X phosphates and protease inhibitor (Santa Cruz Biotechnology, Dallas, USA). The acquired supernatants from the lysates which were centrifuged at 12,000 g, + 4 °C, for 10 min, were transferred to new tubes. Protein concentration was detected using the protein assay kit BCA (Thermo Fisher Scientific, Waltham, MA). After a 30-min period of protein (50 µg) standing in 10% SDS–PAGE gel at 50 V and at 80 V for 3 h, those were blotted to PVDF membrane at 70 V for 5 min (Bio-Rad Turbo Transfer System). After embedding in 1X TBST (12.1 g Tris, pH 7.5, 70 g NaCl, 0.1% Tween-20) containing 5% dry milk or 5% BSA, the primer monoclonal antibodies shown in Table 2 were applied to the membrane and left overnight, which was followed by washing with 1 X TBS-T and an incubation period with secondary antibodies of HRP rabbit or mouse (1/10.000) for 60 min. The membrane was again washed with 1 X TBS-T. For band imaging, ECL substrate (EMD Millipore Corp., Billerica, MA) was added and observations were made via the imaging system (LI-COR Odyssey Fc).

HeLa cells [4] = assay: DNA damage γ-H2AX immunofluorescence; format: cell-based, human; settings: 24 h, concentration dependent
Method: HeLa cells (1 × 10^4/mL) were seeded in 12-well cell culture dishes and after 24 h, they were administered with the sulphonamide derivative compounds at doses of 10–25–50 µM and incubated for 24 h. The cells were washed with PBS and fixed with 100% methanol at −20 °C overnight, which was followed by PBS washing three times for 10 min for each washing. The cells were treated with 0.2% Triton X-100 in a shaker, at room temperature for 5 min. They were washed with PBS, and 1% BSA-containing PBS was then added, and incubation with primary mouse monoclonal anti-γ-H2AX antibody (Cell Signaling Technology, Danvers, MA) was applied at 37 °C for 1 h. The cells were washed with PBS for 5 min three times. Secondary goat anti-mouse Alexa-488-conjugated IgG (Invitrogen, Thermo Fisher Scientific, USA) was administered and the cells were incubated at 37 °C for 20 min, followed by PBS washing for 4–5 min three times. 1 mL 70% EtOH was added and, at +4 °C, released to incubation for 5 min. 1 mL 100% EtOH was added in a shaker, which was then incubated at room temperature for 1–2 min. The nucleus was stained with DAPI and the images were recorded using an Olympus Inverted Fluorescence Microscope (Olympus CKX53, DP73).

HeLa cells [5] = assay: Intracellular free amino acids by LC-MS/MS; format: cell-based, human; settings: 25 µM, 24 h, relative to untreated group
Method: The intracellular free amino acid level was measured according to the Chen et al. method. HeLa cells were planted in 10 cm^2 cell culture dishes, and following 24-h treatment with sulphonamide at a dose of 25 µM, the growth medium was poured out, and the cells were swiftly washed twice with 5 mL cold PBS. Pre-cooled MeOH (−60 °C) was added, and the cells were stripped with a cell scraper. The cell suspension obtained was replaced in 15-mL conic tubes. The samples were kept in liquid nitrogen for 10 min and then dissolved on ice, which was triplicated until the cells were shredded. The samples were centrifuged at 3000 g at 4 °C, for 30 min, and the supernatants were transferred to new tubes. The amino acid level in the supernatant was measured using LC-MS/MS according to the protocol of the Jasem kit. The Jasem-free amino acid assay kit is used for studies involving the diagnosis of various hereditary metabolic disorders and the feeding of newborns with hereditary metabolic disorders. In this study, the protocol used to determine the intracellular free amino acid is as follows. […] Twenty-seven amino acids in the acquired supernatant were analysed in HPLC vials using LC-MS/MS (Shimadzu 8045, Japan). The residual pellet was lysed in 1 mL lysis buffer, protein concentration of which was detected using the BCA protein assay kit (Thermo Fisher Scientific, Waltham, MA). […]

`NS(=O)(=O)c1ccc(CCN=Cc2cc(Br)ccc2O)cc1` [Compound 1] showed an IC50 ([1]; WST-1, 24 h, read-out: IC50 HEK-293 24 h) of 59.7 ± 11.2 µM, an IC50 ([1]; WST-1, 48 h, read-out: IC50 HEK-293 48 h) of 83.6 ± 21.2 µM and an IC50 ([1]; WST-1, 72 h, read-out: IC50 HEK-293 72 h) of 35.8 ± 11.2 µM. The “dose from which an apoptotic effect was shown” value (HeLa cells [2]) was ≥ 25 µM, the “CA IX protein expression” value (HeLa cells [3]; HeLa, 50μM) was “increase” and the “cleaved caspase-8 level” value (HeLa cells [3]; HeLa, 50μM) was “increase”. For the same compound, the “cleaved caspase-9 level” value (HeLa cells [3]; HeLa, 10, 25, 50 µM) was “increase”, the “cleaved caspase-3 level” value (HeLa cells [3]; HeLa) was “significantly increased” and the cleaved-PARP level (HeLa cells [3]; HeLa) was “increase”. The “DNA damage (γ-H2AX foci)” value (HeLa cells [4]) was “increasing γ-H2AX focus points” and the “intracellular free amino acid levels” value (HeLa cells [5]) was “decreased”.

From article PMC6052416, “Selective inhibition of carbonic anhydrase-IX by sulphonamide derivatives induces pH and reactive oxygen species-mediated apoptosis in cervical cancer HeLa cells” (Journal of Enzyme Inhibition and Medicinal Chemistry, 2018)
